Results as given in patent publication US12162881B2, “Forms and compositions of inhibitors of JAK2” (Ajax Therapeutics, Inc., priority 2021, dated 2024).
≈ marks a conversion by molar mass, not a printed value. Where “and” joins values, the source holds several entries; their conditions need not be identical. Equal values may be shown once.

Tests used:
Type in all cases: physicochemical
[1] = Physical Stability of Selected Solid Forms (vacuum oven, XRPD); conditions: vac. oven
[2] = Approximate Aqueous Solubility of Selected Solid Forms; conditions: ambient temperature; for solubility: water, thermodynamic from solid
Procedure: Aliquots of various solvents were added to measured amounts of provided compounds with agitation at ambient temperature until complete dissolution was achieved, as judged by visual observation. If dissolution occurred after the addition of the first aliquot, values were reported as “>”. Results are shown in Table 18, where A is <2 mg/mL; B is <1 mg/mL.

[3] = Dynamic vapor sorption (DVS) hygroscopicity; conditions: for Hysteresis: in % (unit assumed); for DVS weight loss upon desorption as water / DVS weight loss upon desorption: desorption from 95% to 5% RH; for post-DVS XRPD: solid recovered after DVS cycle; for DVS hysteresis observation: sorption/desorption 5-95% RH
Procedure: Automated vapor sorption (VS) data were collected on a Surface Measurement System DVS Intrinsic instrument. Samples were not dried prior to analysis. Sorption and desorption data were collected over a range from 5% to 95% RH at 10% RH increments under a nitrogen purge. The equilibrium criterion used for analysis was less than 0.0100% weight change in 5 minutes with a maximum equilibration time of 3 hours. Data were not corrected for the initial moisture content of the samples.

[4] = Solubility Study of Compound 1 Form 1 (solvent aliquot addition, visual observation); conditions: thermodynamic from solid, read-out: Solubility at ambient temperature
Procedure: Aliquots of various solvents were added to measured amounts of Compound 1 Form 1 with agitation at ambient temperature until complete dissolution was achieved, as judged by visual observation. […] See Table 15 below, where A is 5-20 mg/mL; B is 1-4.9 mg/mL; and C is <1 mg/mL.

[5] = visual observation, read-out: Estimated Aqueous Solubility

Br.CC(=O)Nc1cc(Oc2cnc3nc(Nc4cc(C(F)(F)F)cn(C)c4=O)n(C)c3c2C#N)ccn1 [Compound 3 Form A, N-(4-((7-cyano-1-methyl-2-((1-methyl-2-oxo-5-(trifluoromethyl)-1,2-dihydropyridin-3-yl)amino)-1H-imidazo[4,5-b]pyridin-6-yl)oxy)pyridin-2-yl)acetamide hydrobromide]
XRPD Result (physical stability) ([1]; 45° C., 2 d): Compound 3 Form A +

CC(=O)Nc1cc(Oc2cnc3nc(Nc4cc(C(F)(F)F)cn(C)c4=O)n(C)c3c2C#N)ccn1 [Compound 5 Form A, N-(4-((7-cyano-1-methyl-2-((1-methyl-2-oxo-5-(trifluoromethyl)-1,2-dihydropyridin-3-yl)amino)-1H-imidazo[4,5-b]pyridin-6-yl)oxy)pyridin-2-yl)acetamide camsylate]
XRPD Result (physical stability) ([1]; RT, 5 d): Compound 5 Form C

CC(=O)Nc1cc(Oc2cnc3nc(Nc4cc(C(F)(F)F)cn(C)c4=O)n(C)c3c2C#N)ccn1.O=S(=O)(O)c1ccccc1 [Besylate Form A, N-(4-((7-cyano-1-methyl-2-((1-methyl-2-oxo-5-(trifluoromethyl)-1,2-dihydropyridin-3-yl)amino)-1H-imidazo[4,5-b]pyridin-6-yl)oxy)pyridin-2-yl)acetamide besylate]
solubility [2, 5]: < 1000 µg/mL | XRPD Result (physical stability) ([1]; RT, 5 d): Besylate Form C

N-(4-((7-cyano-1-methyl-2-((1-methyl-2-oxo-5-(trifluoromethyl)-1,2-dihydropyridin-3-yl)amino)-1H-imidazo[4,5-b]pyridin-6-yl)oxy)pyridin-2-yl)acetamide edisylate [Edisylate Form A]
Estimated Aqueous Solubility (mg/mL) ([2]; visual observation): B (B is <1 mg/mL) | XRPD Result (physical stability) ([1]; RT, 5 d): Edisylate Form C

CC(=O)Nc1cc(Oc2cnc3nc(Nc4cc(C(F)(F)F)cn(C)c4=O)n(C)c3c2C#N)ccn1.CS(=O)(=O)O [Compound 4 Form A, N-(4-((7-cyano-1-methyl-2-((1-methyl-2-oxo-5-(trifluoromethyl)-1,2-dihydropyridin-3-yl)amino)-1H-imidazo[4,5-h]pyridin-6-yl)oxy)pyridin-2-yl)acetamide mesylate]
XRPD Result (physical stability) ([1]; 45° C., 2 d): Compound 4 Form B

CC(=O)Nc1cc(Oc2cnc3nc(Nc4cc(C(F)(F)F)cn(C)c4=O)n(C)c3c2C#N)ccn1.CCS(=O)(=O)O [Esylate Form A, N-(4-((7-cyano-1-methyl-2-((1-methyl-2-oxo-5-(trifluoromethyl)-1,2-dihydropyridin-3-yl)amino)-1H-imidazo[4,5-b]pyridin-6-yl)oxy)pyridin-2-yl)acetamide esylate]
solubility [2, 5]: < 1000 µg/mL | XRPD Result (physical stability) ([1]; RT, 5 d): Esylate Form A

CC(=O)Nc1cc(Oc2cnc3nc(Nc4cc(C(F)(F)F)cn(C)c4=O)n(C)c3c2C#N)ccn1.O=P(O)(O)O [Phosphate Form A, N-(4-((7-cyano-1-methyl-2-((1-methyl-2-oxo-5-(trifluoromethyl)-1,2-dihydropyridin-3-yl)amino)-1H-imidazo[4,5-b]pyridin-6-yl)oxy)pyridin-2-yl)acetamide phosphate]
solubility [2, 5]: < 1000 µg/mL | XRPD Result (physical stability) ([1]; RT, 5 d): Phosphate Form A

CC(=O)Nc1cc(Oc2cnc3nc(Nc4cc(C(F)(F)F)cn(C)c4=O)n(C)c3c2C#N)ccn1.Cl [Compound 2 Form A, N-(4-((7-cyano-1-methyl-2-((1-methyl-2-oxo-5-(trifluoromethyl)-1,2-dihydropyridin-3-yl)amino)-1H-imidazo[4,5-b]pyridin-6-yl)oxy)pyridin-2-yl)acetamide hydrochloride]
Desorp Mass Change (%) ([3]; Target RH 5.0%): −0.0582% | Sorp Mass Change (%) ([3]; Target RH 5.0%): 0.0009% | Desorp Mass Change (%) ([3]; Target RH 15.0%): 0.0326% | Sorp Mass Change (%) ([3]; Target RH 15.0%): 0.0521% | Hysteresis ([3]; Target RH 15.0%): −0.0195 | Desorp Mass Change (%) ([3]; Target RH 25.0%): 0.0900% | Sorp Mass Change (%) ([3]; Target RH 25.0%): 0.0998% | Hysteresis ([3]; Target RH 25.0%): −0.0098 | Desorp Mass Change (%) ([3]; Target RH 35.0%): 0.1559% | Sorp Mass Change (%) ([3]; Target RH 35.0%): 0.1539% | Hysteresis ([3]; Target RH 35.0%): 0.0020 | Desorp Mass Change (%) ([3]; Target RH 45.0%): 0.2304% | Sorp Mass Change (%) ([3]; Target RH 45.0%): 0.2007% | Hysteresis ([3]; Target RH 45.0%): 0.0297 | Desorp Mass Change (%) ([3]; Target RH 55.0%): 0.3159% | Sorp Mass Change (%) ([3]; Target RH 55.0%): 0.2634% | Hysteresis ([3]; Target RH 55.0%): 0.0525 | Desorp Mass Change (%) ([3]; Target RH 65.0%): 0.4283% | Sorp Mass Change (%) ([3]; Target RH 65.0%): 0.3387% | Hysteresis ([3]; Target RH 65.0%): 0.0896 | Desorp Mass Change (%) ([3]; Target RH 75.0%): 0.5577% | Sorp Mass Change (%) ([3]; Target RH 75.0%): 0.5032% | Hysteresis ([3]; Target RH 75.0%): 0.0545 | Desorp Mass Change (%) ([3]; Target RH 85.0%): 0.6871% | Sorp Mass Change (%) ([3]; Target RH 85.0%): 0.6403% | Hysteresis ([3]; Target RH 85.0%): 0.0468 | Desorp Mass Change (%) ([3]; Target RH 95.0%): 0.9477% | Sorp Mass Change (%) ([3]; Target RH 95.0%): 0.9477% | DVS weight loss upon desorption as water [3]: 0.3 mol/mol H2O | DVS weight loss upon desorption ([3]; hydrochloride): 1.01% and 1.0059% | post-DVS XRPD [3]: Compound 2 Form A | DVS weight gain as water uptake ([3]; sorption from 5% to 95% RH): 0.3 mol/mol H2O | DVS weight gain ([3]; sorption from 5% to 95% RH, hydrochloride): 0.95% and 0.9468% | DVS hysteresis observation [3]: No hysteresis was observed | solubility [2, 5]: < 2000 µg/mL | solubility ([2]; read-out: Aqueous solubility, visually approximated): < 2000 µg/mL

CC(=O)Nc1cc(Oc2cnc3nc(Nc4cc(C(F)(F)F)cn(C)c4=O)n(C)c3c2C#N)ccn1 [Compound 1 Form 1, N-(4-((7-cyano-1-methyl-2-((1-methyl-2-oxo-5-(trifluoromethyl)-1,2-dihydropyridin-3-yl)amino)-1H-imidazo[4,5-b]pyridin-6-yl)oxy)pyridin-2-yl)acetamide]
Desorp Mass Change (%) ([3]; Target RH 5.0%): −0.011% | Sorp Mass Change (%) ([3]; Target RH 5.0%): 0.001% | Desorp Mass Change (%) ([3]; Target RH 15.0%): 0.103% | Sorp Mass Change (%) ([3]; Target RH 15.0%): 0.068% | Hysteresis ([3]; Target RH 15.0%): 0.036 | Desorp Mass Change (%) ([3]; Target RH 25.0%): 3.654% | Sorp Mass Change (%) ([3]; Target RH 25.0%): 0.118% | Hysteresis ([3]; Target RH 25.0%): 3.536 | Desorp Mass Change (%) ([3]; Target RH 35.0%): 3.877% | Sorp Mass Change (%) ([3]; Target RH 35.0%): 0.292% | Hysteresis ([3]; Target RH 35.0%): 3.585 | Desorp Mass Change (%) ([3]; Target RH 45.0%): 4.084% | Sorp Mass Change (%) ([3]; Target RH 45.0%): 0.396% | Hysteresis ([3]; Target RH 45.0%): 3.687 | Desorp Mass Change (%) ([3]; Target RH 55.0%): 4.203% | Sorp Mass Change (%) ([3]; Target RH 55.0%): 3.757% | Hysteresis ([3]; Target RH 55.0%): 0.446 | Desorp Mass Change (%) ([3]; Target RH 65.0%): 4.403% | Sorp Mass Change (%) ([3]; Target RH 65.0%): 4.049% | Hysteresis ([3]; Target RH 65.0%): 0.354 | Desorp Mass Change (%) ([3]; Target RH 75.0%): 4.578% | Sorp Mass Change (%) ([3]; Target RH 75.0%): 4.282% | Hysteresis ([3]; Target RH 75.0%): 0.296 | Desorp Mass Change (%) ([3]; Target RH 85.0%): 4.677% | Sorp Mass Change (%) ([3]; Target RH 85.0%): 4.534% | Hysteresis ([3]; Target RH 85.0%): 0.142 | Desorp Mass Change (%) ([3]; Target RH 95.0%): 4.804% | Sorp Mass Change (%) ([3]; Target RH 95.0%): 4.804% | DVS weight loss ([3]; desorption from 25% to 15% RH): 3.55% | DVS weight loss as water ([3]; desorption from 25% to 15% RH): 1.0 mol/mol H2O | DVS weight loss upon desorption [3]: 4.82% | DVS weight loss upon desorption as water [3]: 1.4 mol/mol H2O | post-DVS XRPD [3]: very similar | DVS weight gain ([3]; sorption from 5% to 95% RH): 4.80% | DVS weight gain as water uptake ([3]; sorption from 5% to 95% RH): 1.4 mol/mol H2O | DVS weight gain ([3]; sorption from 45% to 55% RH): 3.36% | DVS weight gain as water uptake ([3]; sorption from 45% to 55% RH): 1.0 mol/mol H2O | DVS hysteresis observation [3]: hysteresis evident | solubility ([4]; organic solvent or mixture, solvent ACN): < 1000 µg/mL | solubility ([4]; organic solvent or mixture, solvent DCM): < 1000 µg/mL | solubility ([4]; organic solvent or mixture, solvent DMA): 5000 to 20000 µg/mL (≈ 10000 to 40100 µM) | solubility ([4]; organic solvent or mixture, solvent MeOH): < 1000 µg/mL | solubility ([4]; organic solvent or mixture, solvent TFE): 5000 to 20000 µg/mL (≈ 10000 to 40100 µM) | solubility ([4]; organic solvent or mixture, solvent THF): 1000 to 4900 µg/mL (≈ 2010 to 9830 µM) | solubility ([4]; organic solvent or mixture, solvent acetone): < 1000 µg/mL | solubility ([4]; water, solvent H2O): < 1000 µg/mL
